# What was measured:
# [1] = Pharmacokinetic study in female SD rats, single oral dose; assay type: in vivo; details: rat, 50 mg/kg p.o.; for AUC(0-t) / Cmax / Tmax / half-life / AUC(0-inf): female, SD, plasma, po; for AUC(0-inf): read-out: AUCinf_obs
# Excerpt: In drug discovery it is very important to have good oral bioavailability and pharmacokinetic (PK) profile of the compound in order to become a good drug candidate for oral administration. Many compounds having potent in vitro efficacy fail to show therapeutic efficacy in human body. The lack of therapeutic efficacy of these compounds is mainly due to their inappropriate pharmacokinetic properties, such as low bioavailability, short half-life, rapid metabolism, or rapid clearance resulting in a short duration of action. Therefore a good drug candidate should have not only good potency, but also a good pharmacokinetic profile. The pharmacokinetic profile of the compounds of Formula Ia and Ib were determined as per the procedure provided below.
# PK profiles were evaluated in female SD rats (n=2) following a single oral dose administration. Rats were fasted for 12-13 hours prior to dosing and feed was provided 2 hours after oral treatments. Dose formulations of compounds were prepared in Tween 80 (0.4% v/v of the total volume of suspension) in 0.5% carboxymethyl cellulose (CMC). Treatments were given at 50 mg/kg, p.o. To evaluate the plasma concentration, 0.2 mL blood was drawn from the rats through the retro-orbital plexus at 0.25, 1, 4, 8, 24, 48 and 72 hour time points post-treatment in Eppendorf tubes containing sodium heparin as an anticoagulant (100 IU/mL), and centrifuged immediately at 8500 rpm for 7 min at 4° C. Plasma was separated and stored at −70° C., until analysis. The analysis of samples was performed as per the method given below:
# Working Calibration Standard and Quality Control Standards Preparation:
# Working calibration standards were prepared having 0.10, 0.20, 2.00, 4.00, 8.00, 12.00, 16.00, and 20.00 μg/mL concentrations. Quality control standards were prepared at concentrations of […].
# Preparation of Working Internal Standards (WIS):
# Accurately weighed 5 mg of Carbamazepine was transferred into a 100 mL volumetric flask, dissolved and diluted up to the mark with diluent (0.1% formic acid in water:acetonitrile 30:70 v/v). A WIS of 5 μg/mL was prepared from the above solution.
# 5 μL of working standards and quality controls were spiked into 95 μL of blank plasma. 25 μl from the above spiked standards and quality controls were aliquoted into microcentrifuge tubes. 25 μL of study samples were also aliquoted into a micro centrifuge tube. 5 μL of WIS was added in zero standards to linearity and study samples except blank. The samples were further vortexed for 10-15 seconds. 150 μL of Milli Q water was added to all prepared samples and vortexed for 10-15 seconds. Samples were loaded on a preconditioned cartridge (preconditioning was done with 1 mL methanol followed by 1 mL Milli Q water). Cartridges were washed with 2×1 mL of Milli Q water. Elution was done with a 1 mL elution solution {acetonitrile: 0.1% formic acid solution (70:30)} in HPLC vials.
# Chromatographic separation was achieved on Chiral pack ID (250*4.6 mm, 5μ) with a flow rate of 1.25 mL/min with splitter and injection volume of 20 μL. The sample cooler was maintained at 10° C. The column oven temperature was set to 30° C. The mobile phase consisted of:
# Mobile phase A: 1.47 g of ammonium bicarbonate into 1 L of water, 1 ml DEA, pH 9.2±0.1
# Mobile phase B: methanol,
# wherein mobile phase A was mixed with mobile phase B in the ratio of 30:70 v/v, respectively. The retention time of the compound of Formula Ia, compound of Formula Ib and the internal standard were about 8.7, 7.6 and 4.2 min, respectively. The overall chromatographic run time was 16 minutes.
# Detection was performed by tandem mass spectrometry (TSQ Quantum, Discovery MAX, Thermo Electron Corporation) and peak areas were integrated using LCquan software version 2.9 QF1. […]
# [2] = system: subcutaneous MCF7-Y537S xenografts; assay: In-vivo efficacy in MCF7-Y537S mice xenografts; parameters: species or system female athymic nude mice
# Method: In-Vivo Efficacy of Compound of Formula I and Compound of Formula Ia: […]
# The efficacy of the compound of Formula I and the compound of Formula Ia were evaluated in female athymic nude mice harboring subcutaneous MCF7-Y537S xenografts. Dose formulations of the compound of Formula I and the compound of Formula Ia were prepared in Tween 80 (0.4% v/v of the total volume of suspension) in 0.5% w/v carboxymethylcellulose (CMC) and administered once daily orally for 28 days. Two perpendicular diameters of tumor were measured with digital Vernier caliper. Tumor volume (V) was calculated using the following equation: V=(a^2×b)/2, where “a” is the width of the tumor (small diameter), and “b” the length (large diameter), both in millimeters. Tumors were monitored twice weekly and compared with a vehicle treated group.
AUC(0-t) [1],Cmax [1],Tmax [1],half-life [1],AUC(0-inf) [1],AUClast of Formula Ia relative to Formula Ib [1],Cmax of Formula Ia relative to Formula Ib [1],Structure (SMILES),"% Tumor growth inhibition compared to vehicle group after 28 days ([2]; 50 mg/kg, p.o., 28 days, once daily)",Tumor growth compared to the vehicle group (in words) ([2]; once daily orally for 28 days)
1800 ng·h/mL,119 ng/mL,4 h,10 h,2360 ng·h/mL,,,"CC1=C(c2cc(F)cc(F)c2)[C@@H](c2ccc(/C=C/CN3CC(CF)C3)cc2)Oc2cc(O)ccc21 [Formula Ib, (2R)-3-(3,5-difluorophenyl)-2-[4-[(E)-3-[3-(fluoromethyl)azetidin-1-yl]prop-1-enyl]phenyl]-4-methyl-2H-chromen-7-ol]",,
7580 ng·h/mL,343 ng/mL,4 h,26 h,9800 ng·h/mL,about 4.2 fold,about 2.9 fold,"CC1=C(c2cc(F)cc(F)c2)[C@H](c2ccc(/C=C/CN3CC(CF)C3)cc2)Oc2cc(O)ccc21 [Formula Ia, (2S)-3-(3,5-difluorophenyl)-2-[4-[(E)-3-[3-(fluoromethyl)azetidin-1-yl]prop-1-enyl]phenyl]-4-methyl-2H-chromen-7-ol]",56%,significant reduction in the tumor growth
